Results: US20140051706A1 (PRISM PHARMA CO., LTD., priority 2011, published 2014)

Assay: Plasma stability test
Assay type: in vitro ADME
Conditions: human fresh plasma; read-out: ½t (plasma half-life)
Description: In the tables mentioned below, data indicated by “½t” means data of plasma half-life (minutes) is determined by plasma stability test that mentioned below.
Determination of Plasma half life was carried out according to the following procedure using the fresh plasma.
1. 0.025 mg/mL spiking solution A: add 10 μL of 0.5 mg/mL stock solution to 190 μL of DMSO. 2. Add 90 μL of plasma into the wells designated for all the time points (0, 5, 10, 30, 60, 90, 120, 240 min). 3. Add 10 μL of pre-warmed spiking solution A into the wells designated for all the time points (0, 5, 10, 30, 60, 90, 120, 240 min). Immediately, add 400 μL of ACN containing IS into the wells designated for 0 min, then start timing. 4. At 5, 10, 30, 60, 90, 120, 240 min, add 400 μL of ACN containing IS into the wells, respectively. 5. Protein is precipitated by centrifugation (4000 rpm, 15 min). 6. Transfer 50 μL of supernatant into 50 μL of ultra-pure water (Millipore) in a 96-well sample plate for LC-MS/MS analysis.
With `CC(=O)Oc1ccc(C[C@H]2C(=O)N(Cc3cccc4cccnc34)[C@@H](C)C3N2C(=O)CN(C)N3C(=O)NCc2ccccc2)cc1` (stereo partly drawn) [Example I-1, 4-(((6S,9S)-1-(benzylcarbamoyl)-2,9-dimethyl-4,7-dioxo-8-(quinolin-8-ylmethyl)octahydro-1H-pyrazino[2,1-c][1,2,4]triazin-6-yl)methyl)phenyl acetate] the half-life at 2.5 µg/mL was 0.733 h.
`CCCCC(=O)Oc1ccc(C[C@H]2C(=O)N(Cc3cccc4cccnc34)[C@@H](C)C3N2C(=O)CN(C)N3C(=O)NCc2ccccc2)cc1` (stereo partly drawn) [Example I-2, 4-(((6S,9S)-1-(benzylcarbamoyl)-2,9-dimethyl-4,7-dioxo-8-(quinolin-8-ylmethyl)octahydro-1H-pyrazino[2,1-c][1,2,4]triazin-6-yl)methyl)phenyl pentanoate] gave a half-life at 2.5 µg/mL of 2.75 h.
In the case of `CCCCCCCCC(=O)Oc1ccc(C[C@H]2C(=O)N(Cc3cccc4cccnc34)[C@@H](C)C3N2C(=O)CN(C)N3C(=O)NCc2ccccc2)cc1` (stereo partly drawn) [Example I-3, 4-(((6S,9S)-1-(benzylcarbamoyl)-2,9-dimethyl-4,7-dioxo-8-(quinolin-8-ylmethyl)octahydro-1H-pyrazino[2,1-c][1,2,4]triazin-6-yl)methyl)phenyl nonanoate], the half-life at 2.5 µg/mL is reported as 2.77 h.
